Consider one compound from US6355635B1, “Compounds for the treatment of obesity” (Pfizer Inc., priority 1999, dated 2002).

The test system of this assay is endogenous NPY response. Put plainly: Endogenous NPY response in Bowes melanoma host cells. The note with it: 10 uM; human Bowes melanoma cells (HMCB), low levels of Y1 responses.

Procedure: This plasmid construct is used along with calcium phosphates to stably transfect human Bowes melanoma cells (HMCB; obtained from ATCC, Rockville, Md.), a cell line in which several Gαi-linked receptors are expressed at reasonable levels and are coupled to functional responses. Cells are maintained at 37° C. and 5% CO2 in Eagle's minimum essential medium with 0.1 mM non-essential amino acids, 1.0 mM sodium pyruvate and 25 mM HEPES which is supplemented with 10% fetal bovine serum (pH 7.3).

In the case of `NC(N)=NCCC[C@@H](NC(=O)C(c1ccccc1)c1ccccc1)C(=O)NCc1ccc(O)cc1` [BIBP3226], the “block of the endogenous NPY response” value is reported as “completely blocks”.
